In the NIST ThermoML archive (doi:10.1021/je060411g):

Experiment: molar heat capacity at constant pressure
Conditions: 101.33 kPa

CCC(C)CO (stereo not given) [2-methyl-1-butanol]
Conditions | molar heat capacity at constant pressure [J/K/mol]
84.68 K, Glass | 66.37
85.32 K, Glass | 66.9
86.62 K, Glass | 68.05
88.13 K, Glass | 68.63
88.55 K, Glass | 69.49
89.15 K, Glass | 69.5
90.45 K, Glass | 69.12
90.85 K, Glass | 70.72
92.36 K, Glass | 71.63
92.5 K, Glass | 69.54
92.77 K, Glass | 72.07
93.04 K, Glass | 72.48
94.27 K, Glass | 72.89
94.29 K, Glass | 72.88
94.69 K, Glass | 73.39
96.19 K, Glass | 74.2
96.22 K, Glass | 74.42
96.61 K, Glass | 74.74
98.11 K, Glass | 75.66
98.15 K, Glass | 75.92
98.53 K, Glass | 76.35
100.03 K, Glass | 77.35
100.07 K, Glass | 77.68
100.45 K, Glass | 77.93
101.96 K, Glass | 78.33
101.99 K, Glass | 78.7
102.38 K, Glass | 78.97
103.89 K, Glass | 79.44
103.92 K, Glass | 79.95
104.32 K, Glass | 80.34
105.82 K, Glass | 80.96
105.85 K, Glass | 81.54
106.25 K, Glass | 82
107.75 K, Glass | 82.7
107.79 K, Glass | 83.22
108.19 K, Glass | 83.82
109.68 K, Glass | 84.31
109.72 K, Glass | 84.61
110.13 K, Glass | 85.55
111.62 K, Glass | 86.17
111.66 K, Glass | 86.13
112.07 K, Glass | 87.55
113.54 K, Glass | 88.63
113.6 K, Glass | 88.13
114.02 K, Glass | 89.94
115.46 K, Glass | 92.53
115.54 K, Glass | 91.47
115.95 K, Glass | 93.24
117.36 K, Glass | 100.69
117.46 K, Glass | 98.77
117.87 K, Glass | 98.66
124.07 K, Liquid | 145.49
124.32 K, Liquid | 145.64
124.62 K, Liquid | 145.89
125.99 K, Liquid | 145.72
126.25 K, Liquid | 145.78
126.56 K, Liquid | 145.84
127.96 K, Liquid | 145.9
128.21 K, Liquid | 145.94
128.53 K, Liquid | 145.95
129.93 K, Liquid | 146.02
130.19 K, Liquid | 146.06
130.5 K, Liquid | 146.03
131.9 K, Liquid | 146.08
132.16 K, Liquid | 146.14
132.47 K, Liquid | 146.14
133.88 K, Liquid | 146.23
134.14 K, Liquid | 146.25
134.45 K, Liquid | 146.21
135.85 K, Liquid | 146.27
136.11 K, Liquid | 146.35
136.42 K, Liquid | 146.35
137.83 K, Liquid | 146.45
138.09 K, Liquid | 146.51
138.4 K, Liquid | 146.51
139.8 K, Liquid | 146.64
140.06 K, Liquid | 146.68
140.37 K, Liquid | 146.62
141.77 K, Liquid | 146.82
142.04 K, Liquid | 146.87
142.35 K, Liquid | 146.83
143.75 K, Liquid | 146.95
144.02 K, Liquid | 146.99
144.32 K, Liquid | 146.98
145.73 K, Liquid | 147.13
145.99 K, Liquid | 147.22
146.3 K, Liquid | 147.23
147.7 K, Liquid | 147.38
147.97 K, Liquid | 147.38
148.27 K, Liquid | 147.42
149.68 K, Liquid | 147.55
149.94 K, Liquid | 147.65
150.25 K, Liquid | 147.61
151.45 K, Liquid | 147.59
151.8 K, Liquid | 147.34
151.92 K, Liquid | 147.82
152.97 K, Liquid | 147.67
153.9 K, Liquid | 148.01
154.95 K, Liquid | 148.09
155.88 K, Liquid | 148.33
156.92 K, Liquid | 148.38
157.86 K, Liquid | 148.55
158.9 K, Liquid | 148.61
159.84 K, Liquid | 148.75
160.88 K, Liquid | 148.86
161.82 K, Liquid | 149.02
162.85 K, Liquid | 149.11
163.8 K, Liquid | 149.23
164.83 K, Liquid | 149.31
165.78 K, Liquid | 149.53
166.81 K, Liquid | 149.67
167.76 K, Liquid | 149.85
168.79 K, Liquid | 149.95
169.74 K, Liquid | 150.13
170.77 K, Liquid | 150.21
171.72 K, Liquid | 150.38
172.75 K, Liquid | 150.45
173.69 K, Liquid | 150.67
174.73 K, Liquid | 150.8
175.67 K, Liquid | 150.96
176.7 K, Liquid | 151.12
177.65 K, Liquid | 151.36
178.68 K, Liquid | 151.42
179.63 K, Liquid | 151.66
180.65 K, Liquid | 151.78
